The source of these data is US20080254136A1, “Antiprotozoal Agent” (JAPAN HEALTH SCIENCES FOUNDATION, priority 2004, published 2008).

≈ marks a conversion by molar mass, not a printed value. Where two headings read alike, the source gives them in different places.

This assay has as its system leishmania. In words: antileishmanial activity measurement (leishmania culture, Tetracolor ONE, OD 450-630 nm). The settings on record: leishmania culture 2×10^5/ml, 27° C., 5% CO2, 48 hours, then Tetracolor ONE 6 hours, mean of 3 wells. The format is cell-based. An excerpt:
A hexane extract from Lithospermi Radix (obtained by the method used for Reference example 1), a hexane extract from a mixture of Lithospermi Radix and Angelicae Radix (obtained by the method used for Reference example 2), shikonin (Nagara Science), acetylshikonin (Nagara Science), β,β-dimethylacrylshikonin (Nagara Science), isobutyrylshikonin (Nagara Science), α-methyl-n-butyrylshikonin (Nagara Science), isovalerylshikonin (Nagara Science), β-hydroxyisovalerylshikonin (Nagara Science), and alkanine (Wako Pure Chemical Industries, Ltd.) were subjected to antileishmanial activity measurement.
First, 1 to 5 mg of each sample was dissolved in dimethylsulfoxide (DMSO) such that DMSO solutions (10 mg/ml) were prepared. Then, the solutions were diluted with Medium 199 (800 μg/ml) and allowed to pass through a membrane filter. The resulting test solutions were adjusted to 9 different concentrations. The test solutions (50 μl) at different concentrations and a leishmania culture solution (50 μl) that had been adjusted to a final concentration of 2×10^5/ml were introduced into wells of a microtiter plate such that the total volume of each culture solution was 100 μl in each well. After incubation at 27° C. in the presence of 5% CO2 for 48 hours, 10 μl of a Tetracolor ONE reagent was added thereto, followed by incubation for 6 hours. Thereafter, the OD value (450-630 nm) was measured using a microplate reader. Each sample at each concentration (3 wells) was subjected to measurement such that the mean value was obtained. Then, a graph was created such that the IC50 value was obtained.

As usually defined, the IC50 is the concentration needed to halve the response being measured. `CC(C)=CC[C@@H](OC(=O)CC(C)(C)O)C1=CC(=O)c2c(O)ccc(O)c2C1=O` [β-hydroxyisovalerylshikonin] yielded an IC50 of 0.19 µg/mL (≈ 0.489 µM).
Still for that read-out and setting: as for `CCC(C)C(=O)OC(CC=C(C)C)C1=CC(=O)c2c(O)ccc(O)c2C1=O` (stereo not drawn) [α-methyl-n-butyrylshikonin], the figure is 0.014 µg/mL (≈ 0.0376 µM).
On the same count and under the same terms, as for `CC(=O)O[C@H](CC=C(C)C)C1=CC(=O)c2c(O)ccc(O)c2C1=O` [Acetylshikonin, acetylshikonin], the figure is 0.026 µg/mL (≈ 0.0787 µM); as for `CC(C)=CC[C@@H](OC(=O)C(C)C)C1=CC(=O)c2c(O)ccc(O)c2C1=O` [Isobutyrylshikonin, isobutyrylshikonin], 0.017 µg/mL (≈ 0.0474 µM).
Turning to `CC(C)=CC[C@H](O)C1=CC(=O)c2c(O)ccc(O)c2C1=O` [Alkanine, alkanine], the IC50 (read-out: IC50) worked out at 0.028 µg/mL (≈ 0.0971 µM).
On to `CC(C)=CCC(OC(=O)C=C(C)C)C1=CC(=O)c2c(O)ccc(O)c2C1=O` (stereo not drawn) [β,β-dimethylacrylshikonin], for which the IC50 stood at 0.014 µg/mL (≈ 0.0378 µM).
As to `CC(C)=CC[C@@H](O)C1=CC(=O)c2c(O)ccc(O)c2C1=O` [Shikonin, shikonin], the IC50 came out at 0.09 µg/mL (≈ 0.312 µM).
Same read-out and setting: as for `CC(C)=CCC(OC(=O)CC(C)C)C1=CC(=O)c2c(O)ccc(O)c2C1=O` (centres unmarked) [Isovalerylshikonin, isovalerylshikonin], the figure is 0.02 µg/mL (≈ 0.0537 µM).
